Data from PubChem BioAssay AID1963443 (Molecular Pharmacology Branch, DTP, NCI, 2024).
pIC50: −log10 of the molar value.

Tested on: MDA-MB-231 complex spheroids, growth inhibition
Test: Anticancer human tumor MDA-MB-231 cell line growth inhibition [Asc];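 further: spheroids exposed to compounds for 7 days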
Settings: for pIC50: curve of first compound; for viability, T/C: stronger effect = lower value
Summary of the method: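 Complex solid-tumor spheroids incorporating human endothelial and mesenchymal stem cells received single agents or combinations over half-log dilution ranges anchored to clinical Cmax.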

[1] = second compound 0.03 µM, first compound 0.0316 µM
[2] = second compound 0.03 µM, first compound 0.1 µM
[3] = second compound 0.03 µM, first compound 0.316 µM
[4] = second compound 0.03 µM, first compound 1 µM
[5] = second compound 0.0949 µM, first compound 0.0316 µM
[6] = second compound 0.0949 µM, first compound 0.1 µM
[7] = second compound 0.0949 µM, first compound 0.316 µM
[8] = second compound 0.0949 µM, first compound 1 µM
[9] = second compound 0.3 µM, first compound 0.0316 µM
[10] = second compound 0.3 µM, first compound 0.1 µM
[11] = second compound 0.3 µM, first compound 0.316 µM
[12] = second compound 0.3 µM, first compound 1 µM
[13] = second compound 0.949 µM, first compound 0.0316 µM
[14] = second compound 0.949 µM, first compound 0.1 µM
[15] = second compound 0.949 µM, first compound 0.316 µM
[16] = second compound 0.949 µM, first compound 1 µM
[17] = second compound 3 µM, first compound 0.0316 µM
[18] = second compound 3 µM, first compound 0.1 µM
[19] = second compound 3 µM, first compound 0.316 µM
[20] = second compound 3 µM, first compound 1 µM

With `CCN1CCN(Cc2ccc(Nc3ncc(F)c(-c4cc(F)c5nc(C)n(C(C)C)c5c4)n3)nc2)CC1` + CCN1C(C(=O)NC23CCC(C(=O)O)(CC2)CC3)C(c2cccc(Cl)c2F)C2(C(=O)Nc3cc(Cl)ccc32)C12CCCCC2 the pIC50 (second compound 0.03 µM) was 6.52, the pIC50 (second compound 0.0949 µM) was 6.32 and the pIC50 (second compound 0.3 µM) was less than 6.00. It also gave a pIC50 (second compound 0.949 µM) of less than 6.00, a pIC50 (second compound 3 µM) of less than 6.00 and a viability, T/C (second compound 0.03 µM, first compound 0.00316 µM) of 102%. The viability, T/C (second compound 0.03 µM, first compound 0.01 µM) was 94.3%, the viability, T/C [1] was 76.6% and the viability, T/C [2] was 59%. The viability, T/C [3] was 49.8%, the viability, T/C [4] was 46.6% and the viability, T/C (second compound 0.0949 µM, first compound 0.00316 µM) was 109%. For the same compound, the viability, T/C (second compound 0.0949 µM, first compound 0.01 µM) was 98.8%, the viability, T/C [5] was 79.7% and the viability, T/C [6] was 61.8%. For the same compound, the viability, T/C [7] was 50.5%, the viability, T/C [8] was 48.1% and the viability, T/C (second compound 0.3 µM, first compound 0.00316 µM) was 103%. The viability, T/C (second compound 0.3 µM, first compound 0.01 µM) was 99.9%, the viability, T/C [9] was 86.9% and the viability, T/C [10] was 67%. For the same compound, the viability, T/C [11] was 55%, the viability, T/C [12] was 52.7% and the viability, T/C (second compound 0.949 µM, first compound 0.00316 µM) was 105%. For the same compound, the viability, T/C (second compound 0.949 µM, first compound 0.01 µM) was 101%, the viability, T/C [13] was 85.5% and the viability, T/C [14] was 67.2%. For the same compound, the viability, T/C [15] was 52.8%, the viability, T/C [16] was 53% and the viability, T/C (second compound 3 µM, first compound 0.00316 µM) was 94.8%. For the same compound, the viability, T/C (second compound 3 µM, first compound 0.01 µM) was 86.6%, the viability, T/C [17] was 73.6% and the viability, T/C [18] was 54.5%. The viability, T/C [19] was 49.1% and the viability, T/C [20] was 52.6%.

With `C=CC(=O)N1CCN(c2nc(=O)n(-c3c(C)ccnc3C(C)C)c3nc(-c4c(O)cccc4F)c(F)cc23)C(C)C1` (stereo not given) + Cc1c(S(C)(=O)=O)c(-c2cc(F)cc(N3CCN(c4ccc(NS(=O)(=O)c5ccc(NC(CCN6CCC(C(=O)OCCCP(=O)(O)O)CC6)CSc6ccccc6)c(S(=O)(=O)C(F)(F)F)c5)cc4)CC3)c2)c(-c2ccc(Cl)cc2)n1C(C)C the pIC50 (second compound 0.1 µM) was less than 5.00, the pIC50 (second compound 0.316 µM) was less than 5.00 and the pIC50 (second compound 1 µM) was less than 5.00. The pIC50 (second compound 3.16 µM) was less than 5.00, the pIC50 (second compound 10 µM) was less than 5.00 and the viability, T/C (second compound 0.1 µM, first compound 0.0316 µM) was 99.8%. The viability, T/C (second compound 0.1 µM, first compound 0.1 µM) was 94.4%, the viability, T/C (second compound 0.1 µM, first compound 0.316 µM) was 96.7% and the viability, T/C (second compound 0.1 µM, first compound 1 µM) was 102%. The viability, T/C (second compound 0.1 µM, first compound 3.16 µM) was 105%, the viability, T/C (second compound 0.1 µM, first compound 10 µM) was 98.4% and the viability, T/C (second compound 0.316 µM, first compound 0.0316 µM) was 106%. It also gave a viability, T/C (second compound 0.316 µM, first compound 0.1 µM) of 112%, a viability, T/C (second compound 0.316 µM, first compound 0.316 µM) of 111% and a viability, T/C (second compound 0.316 µM, first compound 1 µM) of 117%. It also gave a viability, T/C (second compound 0.316 µM, first compound 3.16 µM) of 116%, a viability, T/C (second compound 0.316 µM, first compound 10 µM) of 116% and a viability, T/C (second compound 1 µM, first compound 0.0316 µM) of 108%. It also gave a viability, T/C (second compound 1 µM, first compound 0.1 µM) of 106%, a viability, T/C (second compound 1 µM, first compound 0.316 µM) of 100% and a viability, T/C (second compound 1 µM, first compound 1 µM) of 111%. The viability, T/C (second compound 1 µM, first compound 3.16 µM) was 109%, the viability, T/C (second compound 1 µM, first compound 10 µM) was 96.6% and the viability, T/C (second compound 3.16 µM, first compound 0.0316 µM) was 104%. It also gave a viability, T/C (second compound 3.16 µM, first compound 0.1 µM) of 96.8%, a viability, T/C (second compound 3.16 µM, first compound 0.316 µM) of 89.1% and a viability, T/C (second compound 3.16 µM, first compound 1 µM) of 97.5%. For the same compound, the viability, T/C (second compound 3.16 µM, first compound 3.16 µM) was 105%, the viability, T/C (second compound 3.16 µM, first compound 10 µM) was 91.2% and the viability, T/C (second compound 10 µM, first compound 0.0316 µM) was 96.6%. For the same compound, the viability, T/C (second compound 10 µM, first compound 0.1 µM) was 93.7%, the viability, T/C (second compound 10 µM, first compound 0.316 µM) was 93.3% and the viability, T/C (second compound 10 µM, first compound 1 µM) was 96.6%. The viability, T/C (second compound 10 µM, first compound 3.16 µM) was 97.1% and the viability, T/C (second compound 10 µM, first compound 10 µM) was 83.4%.

Work on `Cc1nc(N2CCC3(CC2)COC(C)C3N)c(CO)nc1Sc1ccnc(N)c1Cl` (stereo not given) + CCN1C(C(=O)NC23CCC(C(=O)O)(CC2)CC3)C(c2cccc(Cl)c2F)C2(C(=O)Nc3cc(Cl)ccc32)C12CCCCC2 yielded a pIC50 (second compound 0.03 µM) of 6.50, a pIC50 (second compound 0.0949 µM) of 6.47 and a pIC50 (second compound 0.3 µM) of 6.55. For the same compound, the pIC50 (second compound 0.949 µM) was 6.57, the pIC50 (second compound 3 µM) was 6.80 and the viability, T/C (second compound 0.03 µM, first compound 0.00949 µM) was 95.8%. The viability, T/C (second compound 0.03 µM, first compound 0.03 µM) was 95.4%, the viability, T/C (second compound 0.03 µM, first compound 0.0949 µM) was 96.7% and the viability, T/C (second compound 0.03 µM, first compound 0.3 µM) was 52.7%. It also gave a viability, T/C (second compound 0.03 µM, first compound 0.949 µM) of 2.27%, a viability, T/C (second compound 0.03 µM, first compound 3 µM) of 0.7% and a viability, T/C (second compound 0.0949 µM, first compound 0.00949 µM) of 95.7%. It also gave a viability, T/C (second compound 0.0949 µM, first compound 0.03 µM) of 95.7%, a viability, T/C (second compound 0.0949 µM, first compound 0.0949 µM) of 87.2% and a viability, T/C (second compound 0.0949 µM, first compound 0.3 µM) of 56%. For the same compound, the viability, T/C (second compound 0.0949 µM, first compound 0.949 µM) was 2.11%, the viability, T/C (second compound 0.0949 µM, first compound 3 µM) was 0.82% and the viability, T/C (second compound 0.3 µM, first compound 0.00949 µM) was 99.6%. The viability, T/C (second compound 0.3 µM, first compound 0.03 µM) was 99%, the viability, T/C (second compound 0.3 µM, first compound 0.0949 µM) was 98.3% and the viability, T/C (second compound 0.3 µM, first compound 0.3 µM) was 47.1%. It also gave a viability, T/C (second compound 0.3 µM, first compound 0.949 µM) of 2.58%, a viability, T/C (second compound 0.3 µM, first compound 3 µM) of 0.88% and a viability, T/C (second compound 0.949 µM, first compound 0.00949 µM) of 109%. For the same compound, the viability, T/C (second compound 0.949 µM, first compound 0.03 µM) was 108%, the viability, T/C (second compound 0.949 µM, first compound 0.0949 µM) was 107% and the viability, T/C (second compound 0.949 µM, first compound 0.3 µM) was 44.2%. It also gave a viability, T/C (second compound 0.949 µM, first compound 0.949 µM) of 2.18%, a viability, T/C (second compound 0.949 µM, first compound 3 µM) of 0.9% and a viability, T/C (second compound 3 µM, first compound 0.00949 µM) of 91.1%. The viability, T/C (second compound 3 µM, first compound 0.03 µM) was 89.2%, the viability, T/C (second compound 3 µM, first compound 0.0949 µM) was 81.8% and the viability, T/C (second compound 3 µM, first compound 0.3 µM) was 9.35%. The viability, T/C (second compound 3 µM, first compound 0.949 µM) was 1.26% and the viability, T/C (second compound 3 µM, first compound 3 µM) was 0.54%.

`C=C(F)C(=O)N1CCN(c2nc(OCC3CCCN3C)nc3c2CCN(c2cccc4cccc(Cl)c24)C3)CC1CC#N` (stereo not given) + CCN1C(C(=O)NC23CCC(C(=O)O)(CC2)CC3)C(c2cccc(Cl)c2F)C2(C(=O)Nc3cc(Cl)ccc32)C12CCCCC2 was tested, and the pIC50 (second compound 0.03 µM) was 5.48, the pIC50 (second compound 0.0949 µM) was 5.49 and the pIC50 (second compound 0.3 µM) was 5.51. It also gave a pIC50 (second compound 0.949 µM) of 5.44, a pIC50 (second compound 3 µM) of 5.63 and a viability, T/C [1] of 102%. For the same compound, the viability, T/C [2] was 101%, the viability, T/C [3] was 88.1% and the viability, T/C [4] was 90.2%. The viability, T/C (second compound 0.03 µM, first compound 3.16 µM) was 51.2%, the viability, T/C (second compound 0.03 µM, first compound 10 µM) was 0.47% and the viability, T/C [5] was 100%. The viability, T/C [6] was 108%, the viability, T/C [7] was 97.9% and the viability, T/C [8] was 97.1%. For the same compound, the viability, T/C (second compound 0.0949 µM, first compound 3.16 µM) was 50.7%, the viability, T/C (second compound 0.0949 µM, first compound 10 µM) was 0.33% and the viability, T/C [9] was 112%. The viability, T/C [10] was 107%, the viability, T/C [11] was 110% and the viability, T/C [12] was 105%. For the same compound, the viability, T/C (second compound 0.3 µM, first compound 3.16 µM) was 48.9%, the viability, T/C (second compound 0.3 µM, first compound 10 µM) was 0.55% and the viability, T/C [13] was 112%. The viability, T/C [14] was 116%, the viability, T/C [15] was 114% and the viability, T/C [16] was 107%. For the same compound, the viability, T/C (second compound 0.949 µM, first compound 3.16 µM) was 57.3%, the viability, T/C (second compound 0.949 µM, first compound 10 µM) was 1.4% and the viability, T/C [17] was 94.3%. For the same compound, the viability, T/C [18] was 99.5%, the viability, T/C [19] was 97.6% and the viability, T/C [20] was 86.9%. For the same compound, the viability, T/C (second compound 3 µM, first compound 3.16 µM) was 37.7% and the viability, T/C (second compound 3 µM, first compound 10 µM) was 0.24%.
